Results published in publication PMC6934184, “Selective DNA-PKcs inhibition extends the therapeutic index of localized radiotherapy and chemotherapy” (The Journal of Clinical Investigation, 2019).

Target: T1, LTK (TYK1) (Homo sapiens, UniProt P29376)
T1 construct: purchased Thermo Fisher Scientific (Life Technologies) SelectScreen
Assay: SelectScreen Z'LYTE
Format: biochemical
Method in brief: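 Percent values come from Thermo SelectScreen profiling of NU5455, combining activity and binding assays. CSF1R was run in Z'LYTE format at Km app ATP, and CAMK1 in Adapta format with ATP listed at 10.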

T1 sequence (P29376 17-864): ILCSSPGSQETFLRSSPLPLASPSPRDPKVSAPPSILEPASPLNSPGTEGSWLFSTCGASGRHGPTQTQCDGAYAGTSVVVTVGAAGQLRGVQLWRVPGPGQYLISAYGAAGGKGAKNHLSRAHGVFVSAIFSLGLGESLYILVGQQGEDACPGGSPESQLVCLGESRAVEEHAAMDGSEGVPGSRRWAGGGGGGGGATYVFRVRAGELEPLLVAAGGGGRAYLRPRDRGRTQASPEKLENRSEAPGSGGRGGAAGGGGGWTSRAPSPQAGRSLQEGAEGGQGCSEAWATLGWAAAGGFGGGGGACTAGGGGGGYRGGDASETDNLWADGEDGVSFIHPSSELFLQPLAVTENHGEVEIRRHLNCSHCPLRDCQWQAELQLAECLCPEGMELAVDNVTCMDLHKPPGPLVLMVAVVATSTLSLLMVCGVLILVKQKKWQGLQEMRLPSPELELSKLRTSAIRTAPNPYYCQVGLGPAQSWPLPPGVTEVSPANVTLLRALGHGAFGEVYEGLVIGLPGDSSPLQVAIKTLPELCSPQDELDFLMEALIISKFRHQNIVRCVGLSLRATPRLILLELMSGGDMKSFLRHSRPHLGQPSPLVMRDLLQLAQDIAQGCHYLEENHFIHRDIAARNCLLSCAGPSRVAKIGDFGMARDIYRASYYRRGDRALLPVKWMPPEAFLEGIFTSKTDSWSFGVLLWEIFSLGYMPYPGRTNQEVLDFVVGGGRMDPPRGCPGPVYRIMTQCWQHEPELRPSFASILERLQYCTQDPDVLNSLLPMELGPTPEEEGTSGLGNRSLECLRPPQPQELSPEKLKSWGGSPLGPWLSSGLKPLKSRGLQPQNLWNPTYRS

CN(C(=O)CN1CCOCC1)c1ccc2sc3c(-c4cccc5c(=O)cc(N6CC7CCC(C6)O7)oc45)cccc3c2c1 [NU5455]
inhibition at 1 µM: -13.1%
